These results are taken from patent US4076849A, “Control of nitrosamine formation in nitrite cured meat” (Canada Packers Limited, priority 1975, dated 1978).

Data set [1] in a line: Nitrosamine content after frying cured bacon slices streaked with a soya oil solution of the aromatic secondary amine. To be noted: 100 ppm. As for the experimental part:
In the case of o-methoxy-N-dodecylaminobenzene samples were tested at 100, 200 and 300 ppm levels. The controls were streaked with oil alone.

For data set [2] the following is noted: in vivo; cited from earlier work.
Where [3] appears, read: Table III, controls (ppb): Ex 30 76.0 and 60.0, 31 29.0, 32-33 42.5, 34 32.5, 35-39 28.2, 40 17.5, 41 20.0, 42 19.1, 43-44 34.0, 45 23.0, below about 3 ppb is below accurate detection level.

Regarding `CCOc1ccc(NC(C)(C)C)cc1` [Example 42, p-Ethoxy-N-t-butylaminobenzene], the “NITROSAMINES Test” value in data set [1] (setting [3]) was 2.2 ppb. Regarding `CCCCCCCCCCCCNc1ccc(OC)cc1OC` [Example 45, o,p-Dimethoxy-N-dodecylaminobenzene], the “NITROSAMINES Test” value in data set [1] (setting [3]) stood at 2.5 ppb. On to `CCCCCCCCCCCCNc1ccccc1` [Example 47, N-Dodecylaminobenzene], for which the “NITROSAMINES Test” value in data set [1] (Table IV, controls (ppb): Ex 46 34.0, 47 76.0, 48-49 41.0, 50-54 36.2) amounted to 16.0 ppb. With `O=NN1CCCC1` [N-nitrosopyrrolidine], in data set [2], the “carcinogenic in tests on experimental animals” value is reported as “carcinogenic”. Take `CN(C)N=O` [dimethylnitrosamine]: in data set [2], the “carcinogenic in tests on experimental animals” value was “carcinogenic”.
